The source of these data is PubChem BioAssay (NCI).

Some test systems named below: LOX IMVI melanoma; UACC-62 melanoma; HCT-15 colon; PC-3 prostate; NCI-H23 lung; HS 578T breast; HT29 colon; SN12C renal; OVCAR-8 ovarian; TK-10 renal; M14 melanoma; UO-31 renal; RPMI-8226 leukemia; SR leukemia; SK-MEL-2 melanoma; BT-549 breast; MDA-N.
Common to all, as to test: inhibition of tumour cell growth, NCI panel, 48 h

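Exposure lasted 48 hours, with cells grown in 96-well plates and compounds tested at five concentrations. TGI: total growth inhibition.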

As for `CCOC(=O)c1ccc(Nc2nc3ccc(C(F)(F)F)cc3nc2-c2ccccc2)cc1`, the TGI with LOX IMVI melanoma was over 100 µM; in the test with UACC-62 melanoma, 74.5 µM; in the test on HCT-15 colon, over 100 µM; in the test on PC-3 prostate, over 100 µM; with NCI-H23 lung it was over 100 µM; in the test with HS 578T breast it was over 100 µM. For the same compound, the TGI in the test on HT29 colon, with SN12C renal, with OVCAR-8 ovarian, in the test with TK-10 renal, in the test with M14 melanoma and in the test on UO-31 renal was over 100 µM throughout. In addition, the TGI in the test with RPMI-8226 leukemia and in the test on SR leukemia was over 100 µM each time.

With `CC(=S)NNC(=O)c1ccncc1`, the TGI in the test with LOX IMVI melanoma, in the test on UACC-62 melanoma, in the test on HCT-15 colon, with NCI-H23 lung, in the test on HT29 colon and with SN12C renal was over 100 µM each time. The TGI in the test on OVCAR-8 ovarian, with TK-10 renal, with M14 melanoma, in the test with UO-31 renal, in the test on SK-MEL-2 melanoma and with SR leukemia was over 100 µM throughout.

With `Cc1cc2c(cc1Cl)Sc1nnc(C)n1S2(=O)=O`, the TGI is 23.6 µM in the test on LOX IMVI melanoma; 30.6 µM with UACC-62 melanoma; 25.5 µM in the test on HCT-15 colon; 37 µM in the test with PC-3 prostate; 30.1 µM in the test with NCI-H23 lung; 79.7 µM with HS 578T breast. The TGI with HT29 colon stood at 45.8 µM; with SN12C renal, 34.3 µM; in the test on OVCAR-8 ovarian, 48.8 µM; in the test with TK-10 renal it was 56.9 µM; with M14 melanoma, 30.8 µM; in the test on UO-31 renal, 24.1 µM. The TGI with BT-549 breast and in the test on MDA-N was 29.7 µM in each case.

On to `CSc1nc(-c2cc3c(c(SC)n2)CCC3)cc2c1CCC2`, for which the TGI in the test on UACC-62 melanoma, in the test on HCT-15 colon, in the test on PC-3 prostate, in the test with NCI-H23 lung, with HT29 colon and with SN12C renal was over 100 µM throughout. Moreover, the TGI in the test with OVCAR-8 ovarian, with TK-10 renal, in the test with M14 melanoma, with UO-31 renal, in the test on SK-MEL-2 melanoma and with BT-549 breast was over 100 µM each time. Further, the TGI with MDA-N and in the test on RPMI-8226 leukemia was over 100 µM each time.

On to `COc1cc(/C=C2\CCc3cc(OC)c(OC)cc3C2=O)cc(OC)c1`, for which the TGI in the test with LOX IMVI melanoma is 30.9 µM; with UACC-62 melanoma, 18.4 µM; in the test with HCT-15 colon, over 44.3 µM; in the test with PC-3 prostate, over 100 µM; in the test on NCI-H23 lung, over 86.7 µM; in the test with HS 578T breast, over 100 µM. The TGI is over 100 µM in the test with HT29 colon; 38.2 µM in the test on SN12C renal; over 52 µM with OVCAR-8 ovarian; over 100 µM with TK-10 renal; over 100 µM in the test with M14 melanoma; over 100 µM with UO-31 renal. In addition, the TGI with SK-MEL-2 melanoma is over 57.8 µM; in the test with BT-549 breast, 65.8 µM; with RPMI-8226 leukemia it was over 60.1 µM.

Take `CNS(=O)(=O)NN(C)S(=O)(=O)c1ccc(Br)cc1`: the TGI in the test on LOX IMVI melanoma, with UACC-62 melanoma, with HCT-15 colon, in the test on NCI-H23 lung, in the test on HT29 colon and in the test with SN12C renal was over 100 µM throughout. In addition, the TGI with OVCAR-8 ovarian, in the test with TK-10 renal, with M14 melanoma, in the test on UO-31 renal, in the test with SK-MEL-2 melanoma and with RPMI-8226 leukemia was over 100 µM each time. The compound further displayed a TGI with SR leukemia of over 100 µM.

Turning to `COc1ccccc1/C=C1/Sc2scc(CC(=O)Nc3ccccc3)[n+]2C1=O`, the TGI in the test on LOX IMVI melanoma was over 100 µM; in the test with UACC-62 melanoma it was 45.1 µM; with HCT-15 colon it was over 100 µM; in the test with PC-3 prostate, 93.3 µM; in the test on NCI-H23 lung it was over 100 µM; in the test on HS 578T breast, over 100 µM. In addition, the TGI with HT29 colon was over 100 µM; with SN12C renal it was over 100 µM; in the test on OVCAR-8 ovarian, over 100 µM; in the test with TK-10 renal, 74.3 µM; in the test on M14 melanoma, over 100 µM; in the test on UO-31 renal, 70.7 µM. Also, the figures for the TGI in the test with SK-MEL-2 melanoma, in the test on BT-549 breast and in the test with MDA-N were 73.3 µM, 93.2 µM and 69.9 µM, respectively.

With `Cc1ccc(S(=O)(=O)OCC23CCC(C4CC42)C2CC23)cc1` (stereo not given), the TGI with LOX IMVI melanoma, in the test with UACC-62 melanoma, in the test on HCT-15 colon, with NCI-H23 lung, in the test on HT29 colon and in the test with SN12C renal was over 100 µM each time. The TGI in the test with OVCAR-8 ovarian, in the test on TK-10 renal, in the test with M14 melanoma, in the test on UO-31 renal, with RPMI-8226 leukemia and with SR leukemia was over 100 µM throughout.

On to `CN(C)CCCn1c2c3ccccc3ccc2c2oc(=O)c3ccccc3c21`, for which the TGI in the test on LOX IMVI melanoma was 13.3 µM; in the test on UACC-62 melanoma, 20.3 µM; with HCT-15 colon, 4.34 µM; with NCI-H23 lung, 13.1 µM; with HS 578T breast it was over 65.6 µM; in the test on HT29 colon, 14.7 µM. Also, the TGI in the test on OVCAR-8 ovarian was 8.75 µM; in the test on TK-10 renal, 23 µM; with UO-31 renal it was 15.1 µM; with SK-MEL-2 melanoma it was 21.1 µM; in the test with BT-549 breast, over 57.8 µM; with RPMI-8226 leukemia, 14 µM. This compound showed a TGI in the test on SR leukemia of 5.56 µM.

On to `O=C(c1ccc(Cl)cc1)N(C(=S)N1CCN(c2ccccc2)CC1)c1ccccc1`, for which the TGI with LOX IMVI melanoma, with UACC-62 melanoma, in the test on HCT-15 colon, in the test on NCI-H23 lung, with HT29 colon and in the test on SN12C renal was over 100 µM throughout. Also, the TGI in the test with OVCAR-8 ovarian, in the test with TK-10 renal, with M14 melanoma, with UO-31 renal, with SK-MEL-2 melanoma and in the test on RPMI-8226 leukemia was over 100 µM each time. This compound had a TGI in the test on SR leukemia of over 100 µM.
